Source: paper PMC12736313, “Curcumin and Resveratrol vs. Ferrocene-Modified Polyphenols: Role in Enhancing Protective Properties in Human Keratinocytes” (Pharmaceutics, 2025)
Entries after “also recorded” stand apart in the source; their conditions may differ.

Assays:
HaCaT cells [1] = test: Cell proliferation/viability by Trypan Blue exclusion method; assay type: cell-based, human; settings: 48 h; for antiproliferative activity compared to RSV or CRC-treated cells: 5–100 µM
Procedure: (§1) The adherent HaCaT cell line was obtained from Cytion, Eppelheim, Germany. The HaCaT cell line was routinely grown in Dulbecco’s Modified Eagle Medium supplemented with 10% (v/v) fetal bovine serum (atmosphere of 95% air and 5% CO2 at 37 °C), obtained from Sigma-Aldrich Co., St. Louis, MO, USA. No antibiotics were used throughout the experiments. Cells were harvested with trypsin/EDTA solution (Sigma-Aldrich Co.) after reaching >70% confluence, diluted to the required density, and seeded in multiwell plates (Nunc, Roskilde, Denmark), depending on the experiments performed.
(§2) The cytotoxicity endpoints were determined by MTT (3-(4,5-dimethyl-2-thiazolyl)-2,5-diphenyl-2H-tetrazolium bromide) assay and Trypan blue method. For the MTT assay, cells were seeded in 96-well transparent flat-bottomed polystyrene plates at an initial concentration of 2.5 × 10^5 cells mL^−1 (100 μL/well) in growth medium supplemented with RSV, RF, CRC, and CF at concentrations of 5–100 μM. Concentrations were chosen based on our previously conducted research—reported cytotoxicity thresholds in HaCaT and other cell lines. RF and CF were synthesized in the Laboratory for Organic Chemistry at the University of Zagreb Faculty of Food Technology and Biotechnology, Zagreb, Croatia, while RSV and CRC were purchased from Sigma-Aldrich. After 48 h of incubation at 37 °C, cell viability was determined using the MTT assay. The absorbance was measured at 540 nm (Cary Eclipse spectrofluorimeter, Varian, Palo Alto, CA, USA). For the Trypan blue method, the cells were seeded in 6-well plates at an initial concentration of 2 × 10^4 cells mL^−1 (4 mL/well). After overnight incubation at 37 °C, the cells were treated with RSV, RF, CRC, and CF at different concentrations (5–100 μM). Cell viability was determined 48 h after treatment using the Trypan blue method. The stock solution of RSV was prepared in EtOH, while CRC and ferrocenyl analogues require DMSO due to higher lipophilicity. All stock solutions were stored at −20 °C until use. […] Cell viability is expressed as the percentage of treated cells compared to control cells. For each concentration tested, 3–15 independent biological samples were analyzed.

HaCaT cells [2] = test: Cell viability by MTT assay; assay type: cell-based, human; settings: 48 h; for IC20 / IC50 / IC80: MTT method
Procedure: as §1, §2

HaCaT cells [3] = test: Intracellular ROS (DCFDA) induced by tert-butyl hydroperoxide; assay type: cell-based, human; settings: then 50 µM tBHP; for doses with statistically significant (p < 0.05) lowering of ROS levels: HaCaT pretreated overnight; for effect on ROS induced by tBHP: HaCaT pretreated with 2.5–50 µM
Procedure: (§3) Two approaches were used for intracellular ROS induction. The first approach involved pretreatment of HaCaT cells with RSV, RF, CRC, and CF and, after overnight incubation, treatment with 50 μM tBHP (tert-butyl hydroperoxide). The second approach included pretreatment of the cells with CRC and CF, and after overnight incubation, exposure of the cells to UV (ultraviolet)-C light (15 W; 55 V; 254 nm; PURITEC HNS Linear Lamps, HNS 15 W G13, Osram GmbH, Munich, Germany) for 3 h. In brief, HaCaT cells were seeded at a concentration of 2.5 × 10^5 cells mL^−1 in black 96-well plates (100 µL/well) in growth medium and supplemented with RSV, RF, CRC, and CF at concentrations 2.5–50 μM. The DCFDA/H2DCFDA (2′,7′-dichlorofluorescin diacetate/2′,7′-dichlorodihydrofluorescein diacetate) assay was performed according to the manufacturer’s protocol with minor modifications (Cellular ROS Assay Kit Cat. No. ab113851, Abcam, Cambridge, UK). The intracellular ROS level was determined by measuring the fluorescence intensity (λex/em = 485/535 nm; Cary Eclipse spectrofluorimeter). Cells treated with the same volume of DMSO or EtOH in which RSV, RF, CRC, and CF were dissolved, and cells treated with 50 µM tBHP served as controls. In UV experiments, cells treated with the solvent (DMSO) and exposed to UVR (ultraviolet radiation) were considered as control samples. For each concentration tested, 3–8 independent biological samples were analyzed.

HaCaT cells [4] = test: Intracellular ROS (DCFDA), UV-C-induced or endogenous; assay type: cell-based, human
Procedure: as §3

HaCaT cells [5] = test: Apoptosis/necrosis by Muse Annexin V & Dead Cell Kit (flow cytometry); assay type: cell-based, human; settings: 48 h
Procedure: (§4) The Muse™ Annexin V & Dead Cell Kit (Cat. No. MCH100105, Millipore, Merck Darmstadt, Germany) was used to determine the percentage of HaCaT cells in four different cell populations (live, early apoptotic, late apoptotic, and dead) after treatment of cells with RSV, RF, CRC, and CF (5–100 μM; for 48 h) according to the manufacturer’s protocol. A detailed protocol was elucidated in Murati et al.. The cells were analyzed using the Muse™ Cell Analyzer (Luminex, Austin, TX, USA). For each concentration tested, 3–7 independent biological samples were analyzed.

HaCaT cells [6] = test: Autophagy by Muse Autophagy LC3-antibody based kit (flow cytometry); assay type: cell-based, human; settings: 48 h; for order of the autophagy induction ratio (from highest to lowest): 100 µM
Procedure: The Muse™ Autophagy LC3-antibody based kit (Cat. No. MCH200109, Millipore) was used to determine the induction of autophagy in HaCaT cells after treatment with RSV, RF, CRC, and CF (5–100 μM) with some minor protocol modifications. The experimental procedure for both analyses was set up as for cell viability determination by the Trypan blue method. Autophagy induction data were read based on the fluorescence intensity of the sample (using Muse™ Cell Analyzer). For each concentration tested, 3–8 independent biological samples were analyzed.

[7] = Apoptosis/necrosis by Muse Annexin V & Dead Cell Kit (flow cytometry); assay type: cell-based, human; settings: human, HaCaT cells, highest concentration (100 µM), read-out: viability (live cells)
Procedure: as §4

DNA [8] = test system: DNA; parameters: method as in PMID 21388716; settings: cited from earlier work
DNA [9] = test system: DNA; parameters: method as in PMID 21388716; settings: cited from earlier work; remark: listed apart in the source
[10] = HaCaT, Trypan Blue method, from dose–response curves
[11] = value outside the range of the tested doses (>100 µM)
[12] = Homo sapiens, HaCaT, Trypan Blue method, from dose–response curves
[13] = Homo sapiens, from dose–response curves

COc1cc(/C=C/C(=O)CC(=O)[c-]2cccc2)ccc1O.[Fe+2].c1cc[cH-]c1 [CF, (E)-5-(4-hydroxy-3-methoxyphenyl)-1-ferrocenylpent-4-ene-1,3-dione]
antiproliferative activity compared to RSV or CRC-treated cells (HaCaT cells [1]; Trypan Blue): significantly lower antiproliferative activity
IC20 (HaCaT cells [1]; [10]): 75.4 µM
IC20 (HaCaT cells [2]; [11]): 121 µM
IC50 (HaCaT cells [2]; [11]): 208 µM
IC80 (HaCaT cells [2]; [11]): 273 µM
doses with statistically significant (p < 0.05) lowering of ROS levels (HaCaT cells [3]): ≥ 5 µM
effect on ROS induced by tBHP (HaCaT cells [3]): most pronounced effect; also recorded: significantly reduced the ROS induced by tBHP
effect on UV-induced ROS (HaCaT cells [4]; HaCaT pretreated with 2.5–50 µM, UV-C 3 h): did not exhibit significant antioxidant activity
effect on cell death / viability by flow cytometry (HaCaT cells [5]; 5–100 µM): induced cell death significantly less compared to all compounds tested; also recorded: almost no effect on cell viability
order of the autophagy induction ratio (from highest to lowest) (HaCaT cells [6]): CRC > CF > RF ≈ RSV
effect on autophagy induction (HaCaT cells [6]; 5–100 µM): reduced autophagic degradation activity; also recorded: decrease in the autophagy induction ratio

COc1cc(/C=C/C(=O)CC(=O)/C=C/c2ccc(O)c(OC)c2)ccc1O [CRC, (1E,6E)-1,7-bis(4-hydroxy-3-methoxyphenyl)-1,6-heptadiene-3,5-dione]
doses at which cell viability was almost completely impaired (HaCaT cells [1]; HaCaT, Trypan Blue): ≥ 50 µM
IC50 (HaCaT cells [1]; [12]): 11 µM
IC80 (HaCaT cells [1]; [12]): 26.4 µM
doses at which cell viability was almost completely impaired (HaCaT cells [2]; MTT): ≥ 50 µM
concentrations with statistically significant (p < 0.05) cytotoxicity (HaCaT cells [2]; MTT, vs solvent control): ≥ 20 µM
IC20 (HaCaT cells [2]; [13]): 7.28 µM
IC50 (HaCaT cells [2]; [13]): 18.9 µM
IC80 (HaCaT cells [2]; [13]): 34 µM
doses with statistically significant (p < 0.05) lowering of ROS levels (HaCaT cells [3]): ≥ 5 µM
effect on ROS induced by tBHP (HaCaT cells [3]): most pronounced effect
doses with protective effect against UV-induced ROS (HaCaT cells [4]; HaCaT pretreated overnight, UV-C 3 h): ≥ 20 µM
doses significantly (p < 0.05) reducing endogenous ROS production (HaCaT cells [4]; HaCaT, without UV exposure): ≥ 20 µM
viability at 48 h, 100 µM [7]: 1.08%
proportion of cells in early and late apoptosis (HaCaT cells [5]; 100 µM): 88.40%
proportion of cells in late apoptosis (HaCaT cells [5]; highest concentration (100 µM)): 88.34%
proportion of cells in necrosis (HaCaT cells [5]; highest concentration (100 µM)): 10.52%
effect on autophagy induction (HaCaT cells [6]; 100 µM (highest dose)): highest autophagy induction ratio; also recorded: most prominent autophagy induction ratio
order of the autophagy induction ratio (from highest to lowest) (HaCaT cells [6]): CRC > CF > RF ≈ RSV

COc1cc(C=CC(=O)C(=C[c-]2cccc2)C(=O)C=Cc2ccc(O)c(OC)c2)ccc1O.[Fe+2].c1cc[cH-]c1 [FCU, 1,7-bis(p-hydroxy-m-methoxyphenyl)-4-ferrocenylidene-hepta-1,6-diene-3,5-dione]
inhibition of AAPH-induced oxidation of DNA (DNA [8]): in higher extent than CRC, feruloylacetone, and dehydrozingerone
effect on Cu2+/GSH-induced oxidation of DNA (DNA [9]): protective effects

COc1cc(C=CC(=O)C=C[c-]2cccc2)ccc1O.[Fe+2].c1cc[cH-]c1 [FDZ, 1-(p-hydroxy-m-methoxyphenyl)-5-ferrocenyl-penta-1,4-dien-3-one]
inhibition of AAPH-induced oxidation of DNA (DNA [8]): in higher extent than CRC, feruloylacetone, and dehydrozingerone
effect on Cu2+/GSH-induced oxidation of DNA (DNA [9]): protective effects

COc1cc(C=CC(O)=CC(=O)C=C[c-]2cccc2)ccc1O.[Fe+2].c1cc[cH-]c1 [FFT, 1-(p-hydroxy-m-methoxyphenyl)-3-hydroxy-7-ferrocenyl-hepta-1,4,6-trien-5-one]
inhibition of AAPH-induced oxidation of DNA (DNA [8]): in higher extent than CRC, feruloylacetone, and dehydrozingerone
effect on Cu2+/GSH-induced oxidation of DNA (DNA [9]): protective effects

O=C(CCC[c-]1cccc1)Oc1ccc(/C=C/c2cc(OC(=O)CCC[c-]3cccc3)cc(OC(=O)CCC[c-]3cccc3)c2)cc1.[Fe+2].[Fe+2].[Fe+2].c1cc[cH-]c1.c1cc[cH-]c1.c1cc[cH-]c1 [RF, trans-3,5,4′-tri(4-ferrocenylbutanoyloxy)-stilbene]
antiproliferative activity compared to RSV or CRC-treated cells (HaCaT cells [1]; Trypan Blue): significantly lower antiproliferative activity
IC20 (HaCaT cells [1]; [10]): 10.8 µM
effect on ROS induced by tBHP (HaCaT cells [3]): significantly reduced the ROS induced by tBHP
doses after which the majority of cells remained in the early apoptosis fraction (HaCaT cells [5]): ≥ 5 µM
effect on autophagy induction (HaCaT cells [6]; 5 µM): slightly induced autophagy
effect on autophagy induction (HaCaT cells [6]; 100 µM (highest dose)): lower autophagy-related LC3 protein
order of the autophagy induction ratio (from highest to lowest) (HaCaT cells [6]): CRC > CF > RF ≈ RSV

Oc1ccc(/C=C/c2cc(O)cc(O)c2)cc1 [RSV, 3,4′,5-trihydroxy-trans-stilbene]
IC20 (HaCaT cells [1]; [12]): 3.22 µM
IC50 (HaCaT cells [1]; [12]): 40.3 µM
level of cell death through necrotic or apoptotic pathways (HaCaT cells [5]; 100 µM): ≤ 11%
cell survival (proportion of viable cells in the culture) vs control (HaCaT cells [5]; 100 µM, p < 0.05): significantly lower
effect on autophagy induction (HaCaT cells [6]; 20 µM, p < 0.05): stimulating
effect on autophagy induction (HaCaT cells [6]; 100 µM (highest dose)): reducing
order of the autophagy induction ratio (from highest to lowest) (HaCaT cells [6]): CRC > CF > RF ≈ RSV
